# “Also recorded” adds a separate entry of the source.
# Tests used:
# BK channel = BK channel (Homo sapiens, UniProt Q12791); assay: Inside-out patch clamp (single channel) on EA.hy926 cells; format: cell-based; design: The human umbilical vein derived endothelial cell line, EA.hy926; endogenous in cells; host or cells: EA.hy926 human endothelial cell line
# Experimental: The human umbilical vein derived endothelial cell line, EA.hy926 (Edgell et al., Proc Natl Acad Sci USA. 1983 June; 80(12): 3734-7) at passage >45 was grown in DMEM containing 10% FCS and 1% HAT (5 mM hypoxanthine, 20 μM aminopterin, 0.8 mM thymidine) and cells were maintained in an incubator at 37° C. in 5% CO2 atmosphere. Cells were plated on either 10 mm (for patch-clamp recordings) or 30 mm glass cover slips (for Ca^2+ measurements).
# Single-channel recordings were obtained from excised inside-out membrane patches in symmetrical solutions. The pipettes were filled with (in mM) 140 KCl, 10 HEPES, 1 MgCl2, 5 EGTA, 4,931 CaCl2 with pH 7.2 by adding KOH (i.e. 10 μM free Ca^2+, G. Droogmans, Leuven, Belgium; ftp://ftp.cc.kuleuven.ac.be/pub/droodmans/cabuf.zip). Cells were perfused with a standard bath solution containing (in mM) 140 NaCl, 5 KCl, 1.2 MgCl2, 10 HEPES, 10 glucose, 2.4 CaCl2. Following gigaseal formation, bath solution was switched to the following (in mM) 140 KCl, 10 HEPES, 1 MgCl2, 5 EGTA and a desired free Ca^2+ concentration which was adjusted by adding different amounts of CaCl2 calculated by the program CaBuf. pH was adjusted to 7.2 by adding KOH. Membrane currents and potential were recorded using a List EPC7 amplifier (List, Germany) and pClamp (version 8.2, Axon Instruments) software.
# [1] = tested on: C57BL/6.Fmr1 knockout mice; assay: Marble burying in Fmr1 knockout mice; format: in vivo, mouse; conditions: 2 mg/kg i.v., 30 min
# Experimental: (§1) Animals: C57BL/6.J. Fmr1-K02 mice, which have a deletion of the promoter and exonl of the Fmr1 gene (Mientjes et al., 2006) and C57BL/6J wild type (WT) were originated from the Jackson laboratory (Ann Harbor, USA). Mice were housed in groups (4-6 per cage) and all animals were provided with ad libitum food and water unless otherwise stated. Mice were maintained on a 12 h light/12 h dark cycle (lights off 19:00 to 7:00) in a temperature-controlled environment (21±1° C.). Testing was conducted in the light phase. Mice were housed in commercial cages and experiments were performed in line with the United Kingdom Animals (Scientific procedures) Act 1986. […]
# (§2) Drug Treatment: VSN16R was dissolved in saline for injection intravenously via a tail vein using 2 mg/kg a 30 g needle in a volume of 0.1 ml. […] The eye condition (runny eyes or porphyria, ptosis), gait appearance, tremor, tail tone, reactivity to handling was assessed to detect adverse behavioural effect.
# Marble burying: Mice will dig as part of their typical behaviours and this was detected using transparent plastic cages were filled with a 10 cm deep layer of sawdust on top of which 10 glass marbles were placed in two rows. Each animal was left undisturbed in such a cage for 30 min, after which the number of marbles that were buried to at least ⅔ of their depth was recorded. […]
# [2] = target: T1, BKCa channels formed by the exon-less alpha subunit (Homo sapiens, UniProt Q12791); assay: Whole-cell BKCa current in HEK293 cells expressing the alpha subunit alone; format: cell-based; conditions: 20 μM
# T1 construct: expressed in transfected cells; host or cells: HEK293
# [3] = tested on: C57BL/6.Fmr1 knockout mice; assay: Open field test in Fmr1 knockout mice; format: in vivo, mouse; conditions: 2 mg/kg i.v.
# Experimental: as §1, §2
# Open field: The open field apparatus was used to test multiple processes including anxiety/hyperactivity and habituation to a novel environment, in which decreased exploration as a function of repeated exposure to the same environment is taken as an index of memory. […] The number of squares entered (whole body) (locomotor activity) and rears (both front paws off the ground, but not as part of grooming) were counted. […]
# mesenteric arteries = conditions: cited from earlier work
# mouse vas deferens = assay: βγ-methylene ATP-induced contraction of mouse vas deferens; conditions: 100 nM; electrically unstimulated vasa deferentia
# Experimental: Mouse vas deferens were treated with either DMSO vehicle or 100 nM VSN16R 30 min before the first organ bath injection of various concentrations of βγ-methylene ATP into the organ bath (FIG. 16). The results represent the mean±SEM of βγ-methylene ATP-induced increases in tension (expressed in grams) of electrically unstimulated vasa deferentia. (n=6/group).
# KNCMA1 = target: T2, KNCMA1 (Sus scrofa, UniProt O18866); assay: Whole-cell current in primary pig aortic endothelial cells; format: cell-based; conditions: no BK beta chains
# T2 construct: endogenous in cells; host or cells: primary pig aortic endothelial cells
# From the text: Pig aortic endothelial cells only express KNCMAI and not KNCMB1-4 (Papassotiriou et al). Thus, the absence of stimulation indicates a lack of effect on KNCMA1.
# T1 sequence (Q12791 1-1178 isoform Q12791-5): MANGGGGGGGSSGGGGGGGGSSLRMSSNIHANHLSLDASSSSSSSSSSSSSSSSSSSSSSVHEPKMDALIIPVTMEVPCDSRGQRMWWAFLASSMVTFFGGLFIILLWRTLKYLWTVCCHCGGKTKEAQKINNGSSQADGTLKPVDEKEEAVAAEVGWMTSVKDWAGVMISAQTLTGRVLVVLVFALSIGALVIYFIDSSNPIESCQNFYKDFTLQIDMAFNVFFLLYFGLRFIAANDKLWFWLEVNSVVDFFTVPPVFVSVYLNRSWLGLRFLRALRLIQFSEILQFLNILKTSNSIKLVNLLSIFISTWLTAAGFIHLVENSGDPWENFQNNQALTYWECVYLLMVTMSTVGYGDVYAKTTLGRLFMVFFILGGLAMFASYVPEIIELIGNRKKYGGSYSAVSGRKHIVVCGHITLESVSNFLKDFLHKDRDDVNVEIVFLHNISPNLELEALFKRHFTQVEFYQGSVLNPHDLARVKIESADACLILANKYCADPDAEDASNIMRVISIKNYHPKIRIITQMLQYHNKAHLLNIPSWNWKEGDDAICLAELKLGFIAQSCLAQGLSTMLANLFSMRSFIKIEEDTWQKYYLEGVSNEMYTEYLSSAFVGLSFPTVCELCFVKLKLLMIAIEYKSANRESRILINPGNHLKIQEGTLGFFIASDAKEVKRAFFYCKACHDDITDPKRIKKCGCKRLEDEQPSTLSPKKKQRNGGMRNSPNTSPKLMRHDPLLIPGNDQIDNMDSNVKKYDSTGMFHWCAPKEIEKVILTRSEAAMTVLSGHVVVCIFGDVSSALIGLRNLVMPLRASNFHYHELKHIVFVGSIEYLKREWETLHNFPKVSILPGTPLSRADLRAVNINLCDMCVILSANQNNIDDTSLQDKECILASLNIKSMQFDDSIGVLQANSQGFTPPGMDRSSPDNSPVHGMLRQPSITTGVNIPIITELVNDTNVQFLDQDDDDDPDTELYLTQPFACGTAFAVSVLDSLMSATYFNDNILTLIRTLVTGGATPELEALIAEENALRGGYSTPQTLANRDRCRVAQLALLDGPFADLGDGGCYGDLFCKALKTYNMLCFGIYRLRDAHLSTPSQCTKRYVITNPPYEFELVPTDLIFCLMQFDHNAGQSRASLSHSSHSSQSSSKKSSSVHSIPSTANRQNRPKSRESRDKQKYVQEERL
# Sequence of BK channel (Q12791 1-1178 isoform Q12791-5): as above
# Sequence of BK channel (Q86W47 whole entry partner): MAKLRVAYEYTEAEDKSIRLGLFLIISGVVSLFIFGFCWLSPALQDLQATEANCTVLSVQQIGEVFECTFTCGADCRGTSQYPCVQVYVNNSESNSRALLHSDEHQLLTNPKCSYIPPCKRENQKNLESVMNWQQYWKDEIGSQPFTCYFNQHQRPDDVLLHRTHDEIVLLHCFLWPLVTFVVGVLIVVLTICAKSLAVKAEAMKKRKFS
# T2 sequence (O18866 whole entry): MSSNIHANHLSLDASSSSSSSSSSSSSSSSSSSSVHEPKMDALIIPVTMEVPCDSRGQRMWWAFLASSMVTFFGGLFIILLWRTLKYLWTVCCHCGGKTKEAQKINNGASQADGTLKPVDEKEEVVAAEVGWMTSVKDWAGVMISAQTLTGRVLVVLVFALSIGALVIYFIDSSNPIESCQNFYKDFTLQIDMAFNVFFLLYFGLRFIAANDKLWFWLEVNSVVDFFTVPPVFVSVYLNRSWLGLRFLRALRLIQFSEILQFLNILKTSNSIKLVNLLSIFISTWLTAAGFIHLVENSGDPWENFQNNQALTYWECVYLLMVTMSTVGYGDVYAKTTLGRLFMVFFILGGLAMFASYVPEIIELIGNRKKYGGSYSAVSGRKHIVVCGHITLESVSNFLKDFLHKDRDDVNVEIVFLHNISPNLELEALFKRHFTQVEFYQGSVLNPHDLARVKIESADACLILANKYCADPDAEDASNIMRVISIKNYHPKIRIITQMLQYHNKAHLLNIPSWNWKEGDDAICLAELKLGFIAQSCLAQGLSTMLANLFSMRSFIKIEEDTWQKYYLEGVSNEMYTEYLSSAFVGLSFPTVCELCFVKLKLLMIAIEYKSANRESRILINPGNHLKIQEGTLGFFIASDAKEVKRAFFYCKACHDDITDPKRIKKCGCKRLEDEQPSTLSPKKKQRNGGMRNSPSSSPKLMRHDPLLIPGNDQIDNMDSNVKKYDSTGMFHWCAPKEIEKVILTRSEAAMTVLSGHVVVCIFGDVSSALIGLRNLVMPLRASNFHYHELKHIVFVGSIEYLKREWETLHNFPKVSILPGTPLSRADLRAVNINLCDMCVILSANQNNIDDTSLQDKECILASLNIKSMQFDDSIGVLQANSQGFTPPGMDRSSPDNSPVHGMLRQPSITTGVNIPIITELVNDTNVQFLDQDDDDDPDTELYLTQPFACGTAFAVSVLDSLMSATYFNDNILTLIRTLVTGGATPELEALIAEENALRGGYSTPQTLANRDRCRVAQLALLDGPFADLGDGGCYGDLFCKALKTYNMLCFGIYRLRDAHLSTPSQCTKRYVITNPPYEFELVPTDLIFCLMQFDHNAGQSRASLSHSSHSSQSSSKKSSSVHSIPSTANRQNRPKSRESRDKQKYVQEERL
smiles,measurement,setting,value
C[C@H](CO)NC(=O)c1cccc(/C=C\CCCC(=O)N(C)C)c1 [VSN16R],open probability of BKca channels,BK channel; EA.hy926 cells,increases the open probability of BKca channels
same,activation of the response of the channel,"BK channel; human EA.hy926 cells, calcium dependent",voltage and calcium dependent; also recorded: activation of the response of the channel
same,digging behaviour (marbles buried),[1],inhibits the development of Exaggerated Digging Behaviours; also recorded: significantly (P<0.001) limited the exaggerated behaviour
same,enhancement of BKCa current,"[2]; HEK293, steps −40 mV to +70 mV, 200 nM calcium",not responsive; also recorded: does not act on BKCa channels formed by the exon-less alpha subunit; also recorded: did not display any enhancing effect on the current; also recorded: did not affect the BKCa current at any voltage; also recorded: did not enhance BKCa currents
same,activation voltage / voltage-dependence of activation of BKCa current,"[2]; intracellular calcium 1 μM, 200 nM, nominally 0 M",did not shift the voltage-depence of activation; also recorded: did not affect the activation voltage of BKCa current
same,"open field activity (hyperactivity, memory)","[3]; Fmr1 knockout mice, baseline, 10 min, 24 h, 2 mg/kg",inhibits the hyperactivity and memory deficient; also recorded: movement behaviours were comparable to that observed in wildtype mice; also recorded: normalise the memory and exploratory behaviours to the level of wildtype mice
same,open field activity,[3]; wildtype mice,exhibit comparable movement behaviour to vehicle-treated wildtype mice
same,action on smooth muscle carrying the β1 subunit,mesenteric arteries,does not act on smooth muscle
same,effect on βγ-methylene ATP-induced contraction,mouse vas deferens,does not affect
same,effect on current,KNCMA1,only a minor effect on current

# From patent US20180116983A1, “COMPOUNDS FOR TREATING DISORDERS ASSOCIATED WITH BK CHANNEL MODULATION” (Canbex Therapeutics Limited, priority 2015, published 2018)
